This is an account of results in ChEMBL document CHEMBL1129785, “Preparation and structure-activity relationship of novel P1/P1'-substituted cyclic urea-based human immunodeficiency virus type-1 protease inhibitors” (J Med Chem, 1996).

Test [1] deals with Human immunodeficiency virus 1. As to the kind of experiment: Antiviral potency was assessed by measuring the effect on accumulation of viral RNA transcripts 3 days after infection of MT-2 cells with HIV-1 RF. The format is functional, MT2.
The target in test [2] is Human immunodeficiency virus type 1 protease (Human immunodeficiency virus 1, UniProt Q72874). As to the kind of experiment: Inhibitory activity against HIV protease.
Test [3] deals with Human immunodeficiency virus type 1 protease (Human immunodeficiency virus 1) (UniProt Q72874). Description: Ability to increase whole-cell antiviral efficacy through better translation defined as the ratio between IC90 and Ki. The format is functional.
The mark [4] stands for this setting: Human immunodeficiency virus 1, MT2, 72 h.

Values joined by “and” are separate entries in the source; they are usually repeats but may differ in a detail not shown here. Equal entries are not always repeated.

Turning to `Cc1ccc(C)n1-c1cccc(C[C@@H]2[C@H](O)[C@@H](O)[C@@H](Cc3cccc(-n4c(C)ccc4C)c3)N(Cc3ccccc3)C(=O)N2Cc2ccccc2)c1`, the IC90 (in general, the concentration needed for an effect of 90%) in test [1] (setting [4]) is more than 10 µM. In test [2], affinity was put at a Ki of 0.16 µM.

Regarding `COc1ccccc1C[C@@H]1[C@H](O)[C@@H](O)[C@@H](Cc2ccccc2OC)N(Cc2ccccc2)C(=O)N1Cc1ccccc1`, in test [3], the Ratio amounted to 150. This compound showed an IC90 in test [1] (setting [4]) of 8.8 µM. Moreover, in test [2], affinity was put at a Ki of 0.06 µM.

The compound `O=C1N(Cc2ccccc2)[C@H](Cc2c[nH]c3ccccc23)[C@H](O)[C@@H](O)[C@@H](Cc2c[nH]c3ccccc23)N1Cc1ccccc1` registered an IC90 in test [1] (setting [4]) of more than 10 µM. For the same compound, in test [2], affinity was put at a Ki of 0.58 µM.

In test [1] (setting [4]), `CC(C)[C@@H]1[C@H](O)[C@@H](O)[C@@H](C(C)C)N(CC2CC2)C(=O)N1CC1CC1` yielded an IC90 of more than 10 µM.

For the compound `CSCC[C@@H]1[C@H](O)[C@@H](O)[C@@H](CCSC)N(Cc2ccc(CO)cc2)C(=O)N1Cc1ccc(CO)cc1`, the IC90 in test [1] (setting [4]) was more than 10 µM. In addition, affinity in test [2] was put at a Ki of 3.9 µM.

In turn, `O=C1N(Cc2ccccc2)[C@H](Cc2ccncc2)[C@H](O)[C@@H](O)[C@@H](Cc2ccncc2)N1Cc1ccccc1` gave an IC90 in test [1] (setting [4]) of 5.7 µM. The Ki (in general, the equilibrium dissociation constant of an inhibitor or competing ligand from its target) in test [2] was 0.022 µM.

As to `Nc1ccc(C[C@@H]2[C@H](O)[C@@H](O)[C@@H](Cc3ccc(N)cc3)N(Cc3ccccc3)C(=O)N2Cc2ccccc2)cc1` [listing 1 of 3 here], it took 1.4 µM to reach the 90% level in test [1] (setting [4]) (IC90). Besides, in test [2], the affinity, expressed as Ki, was 0.0085 µM.

In turn, `COc1ccccc1C[C@@H]1[C@H](O)[C@@H](O)[C@@H](Cc2ccccc2OC)N(CC2CC2)C(=O)N1CC1CC1` displayed an IC90 in test [1] (setting [4]) of more than 10 µM. Further, the Ki in test [2] was found to be 0.065 µM.

In test [1] (setting [4]), `CSCC[C@@H]1[C@H](O)[C@@H](O)[C@@H](CCSC)N(Cc2ccccc2)C(=O)N1Cc1ccccc1` gave an IC90 of more than 10 µM. Besides, affinity in test [2] was put at a Ki of 1.1 µM.

In turn, `CC(C)C[C@@H]1[C@H](O)[C@@H](O)[C@@H](CC(C)C)N(CC2CC2)C(=O)N1CC1CC1` had an IC90 in test [1] (setting [4]) of more than 10 µM. This compound also yielded a Ki in test [2] of 0.086 µM.

The compound `O=C1N(Cc2ccc(CO)cc2)[C@H](Cc2ccncc2)[C@H](O)[C@@H](O)[C@@H](Cc2ccncc2)N1Cc1ccc(CO)cc1` yielded an IC90 in test [1] (setting [4]) of more than 10 µM. Further, the affinity in test [2], expressed as Ki, was 0.0048 µM.

In test [1] (setting [4]), `C[C@@H]1[C@H](O)[C@@H](O)[C@@H](C)N(Cc2ccccc2)C(=O)N1Cc1ccccc1` displayed an IC90 of more than 10 µM. In test [2], this compound registered a Ki of 5 µM.

For `CSCC[C@@H]1[C@H](O)[C@@H](O)[C@@H](CCSC)N(CC2CC2)C(=O)N1CC1CC1`, the IC90 in test [1] (setting [4]) is more than 10 µM.

Turning to `CC(C)C[C@@H]1[C@H](O)[C@@H](O)[C@@H](CC(C)C)N(Cc2ccc(CO)cc2)C(=O)N1Cc1ccc(CO)cc1`, the IC90 in test [1] (setting [4]) was more than 10 µM. In test [2], this compound gave a Ki of 0.038 µM.

For `Nc1ccc(C[C@@H]2[C@H](O)[C@@H](O)[C@@H](Cc3ccc(N)cc3)N(Cc3ccccc3)C(=O)N2Cc2ccccc2)cc1` [listing 2 of 3 here], in test [1], it took 1.3 µM to reach the 90% level (IC90). In test [2], this compound yielded a Ki of 0.0071 µM.

Turning to `O=C1N(Cc2ccc(CO)cc2)[C@H](CC2CCCCC2)[C@H](O)[C@@H](O)[C@@H](CC2CCCCC2)N1Cc1ccc(CO)cc1`, the concentration for an effect of 90% (IC90) in test [1] (setting [4]) was more than 10 µM. In test [2], this compound returned a Ki of 0.032 µM.

`CC(C)c1ccc(C[C@@H]2[C@H](O)[C@@H](O)[C@@H](Cc3ccc(C(C)C)cc3)N(Cc3ccccc3)C(=O)N2Cc2ccccc2)cc1`: the IC90 in test [1] (setting [4]) was more than 10 µM. For the same compound, affinity in test [2] was put at a Ki of 0.0011 µM.

As to `O=C1N(Cc2ccccc2)[C@H](CC2CCCCC2)[C@H](O)[C@@H](O)[C@@H](CC2CCCCC2)N1Cc1ccccc1`, the IC90 in test [1] (setting [4]) was more than 10 µM. The same compound came in with a Ki in test [2] of 0.028 µM.

In turn, `CC(C)C[C@@H]1[C@H](O)[C@@H](O)[C@@H](CC(C)C)N(Cc2ccccc2)C(=O)N1Cc1ccccc1` displayed an IC90 in test [1] (setting [4]) of more than 10 µM. The same compound gave a Ki in test [2] of 1.7 µM.

With `Nc1ccc(C[C@@H]2[C@H](O)[C@@H](O)[C@@H](Cc3ccc(N)cc3)N(Cc3ccccc3)C(=O)N2Cc2ccccc2)cc1` [listing 3 of 3 here], the Ratio in test [3] is 165 and 180.

In test [1] (setting [4]), `O=C1N(Cc2ccccc2)[C@H](CCc2ccccc2)[C@H](O)[C@@H](O)[C@@H](CCc2ccccc2)N1Cc1ccccc1` gave an IC90 of more than 10 µM. Besides, the Ki in test [2] came to 0.32 µM.
